Results on six compounds are retold here after EP0490450A1, “Heterocyclic carboxylic esters, methods for their preparation and their use for the preparation of gastrointestinal medicines” (YAMANOUCHI EUROPE B.V., priority 1990, dated 1992).

The experiment has as its system Helicobacter pylori. Briefly: Paper disc inhibition assay on blood agar plates (inhibition zone). In kind it is cell-based. On the procedure:
The test organisms used in the inhibition assay were fresh isolates of Helicobacter pylori from patients with duodenal ulcer or non-ulcer dyspepsia, except strain NCTC 11637 which originates from a deposit freely available to the public. NCTC 11637 is a metronidazole resistant strain. All strains were stored frozen. For each inhibition assay fresh strains were thawed in a waterbath at 37°C. Helicobacter pylori strains were incubated with shaking (150 rpm) for 48 hours in 10 ml brain heart infusion […] containing 7% fetal calf serum at 37°C under an atmosphere of 10% CO₂, 5% O₂ and 85% N₂. After washing with phosphate buffered saline and centrifugation the pellet was resuspended and diluted until a density of 10-20 nephelometric turbidity units was achieved and subsequently smeared on blood agar plates. A paper disc with a diameter of 7 mm was placed in the centre of the plate. The test compounds were dissolved in dimethylsulfoxide (DMSO) and 20 µl of these solutions were applied to the disc. After three days of culturing at 37°C under microaerophilic conditions the inhibition zone was measured in mm.
Table I. In vitro activity of the compounds according to the invention on Helicobacter pylori. Inhibition zones are given in mm, 7 mm means no activity.
Compound GBR 24156, an ester of penicillin V and metronidazole has, in a concentration of 1.7 µg/ml, been compared with the combination of single substances penicillin V and metronidazole, both in a concentration of 0.85 µg/ml.
Table II. In vitro activity of GBR 24156 compared to the activity of penicillin V and metronidazole on Helicobacter pylori. Inhibition zones are given in mm; 7 mm means no activity.

The mark [1] stands for this setting: Helicobacter pylori, 72 h, H. pylori strain A85, concentration 50 µg/ml, 7 mm means no activity.
Where [2] appears, read: Helicobacter pylori, 72 h, H. pylori strain C85, concentration 50 µg/ml, 7 mm means no activity.
Where [3] appears, read: Helicobacter pylori, 72 h, H. pylori strain D9, concentration 50 µg/ml (20 µl on 7 mm disc), 7 mm means no activity.
Where [4] appears, read: Helicobacter pylori, 72 h, H. pylori strain D20, concentration 50 µg/ml, 7 mm means no activity.
Where [5] appears, read: Helicobacter pylori, NCTC11637, 72 h, H. pylori strain NCTC 11637 (metronidazole resistant), concentration 50 µg/ml, 7 mm means no activity.
Setting [6] is: Helicobacter pylori, 72 h, H. pylori strain A85, concentration 20 µg/ml, 7 mm means no activity.
Setting [7] is: Helicobacter pylori, 72 h, H. pylori strain B104, concentration 20 µg/ml, 7 mm means no activity.
Where [8] appears, read: Helicobacter pylori, 72 h, H. pylori strain C85, concentration 20 µg/ml, 7 mm means no activity.
The mark [9] stands for this setting: Helicobacter pylori, 72 h, H. pylori strain D9, concentration 20 µg/ml (20 µl on 7 mm disc), 7 mm means no activity.
Where [10] appears, read: Helicobacter pylori, 72 h, H. pylori strain D20, concentration 20 µg/ml, 7 mm means no activity.
[11] abbreviates: Helicobacter pylori, 72 h, H. pylori strain D29, concentration 20 µg/ml, 7 mm means no activity.
Where [12] appears, read: Helicobacter pylori, NCTC11637, 72 h, H. pylori strain NCTC 11637 (metronidazole resistant), concentration 20 µg/ml, 7 mm means no activity.

A word on the zone of inhibition: it is the extent of the growth-free halo in a diffusion test.

For the compound `Cc1ncc([N+](=O)[O-])n1CCOC(=O)COC(=O)C(C)(C)O/N=C(\C(=O)N[C@@H]1C(=O)N(S(=O)(=O)O)[C@H]1C)c1csc(N)n1` [GBR 24165], the zone of inhibition at 50 µg/mL turned out to be 29 mm under setting [1]; 10 mm under setting [2]; 36 mm under setting [3]; 12 mm under setting [4]; 33 mm under setting [5].

Regarding `Cc1ncc([N+](=O)[O-])n1CCOC(=O)C(C)(C)O/N=C(\C(=O)N[C@@H]1C(=O)N(S(=O)(=O)O)[C@H]1C)c1csc(N)n1` [GBR 24164], the zone of inhibition at 100 µg/mL was 20 mm (Helicobacter pylori, 72 h, H. pylori strain B104, concentration 100 µg/ml, 7 mm means no activity); 7 mm (Helicobacter pylori, 72 h, H. pylori strain C85, concentration 100 µg/ml, 7 mm means no activity); 16 mm (Helicobacter pylori, 72 h, H. pylori strain D9, concentration 100 µg/ml (20 µl on 7 mm disc), 7 mm means no activity); 7 mm (Helicobacter pylori, 72 h, H. pylori strain D20, concentration 100 µg/ml, 7 mm means no activity); 12 mm (Helicobacter pylori, 72 h, H. pylori strain D29, concentration 100 µg/ml, 7 mm means no activity); 7 mm (Helicobacter pylori, NCTC11637, 72 h, H. pylori strain NCTC 11637 (metronidazole resistant), concentration 100 µg/ml, 7 mm means no activity).

Take `Cc1ncc([N+](=O)[O-])n1CCOC(=O)[C@@H]1N2C(=O)[C@@H](NC(=O)COc3ccccc3)[C@H]2SC1(C)C` [GBR 24156, 2-(2-Methyl-5-nitroimidazol-1-yl)ethyl (3S,5R,6R)-2,2-dimethyl-6-phenoxy acetamidopenam-3-carboxylate]: the “in vitro growth inhibition (in words)” value (Helicobacter pylori NCTC 11637, known for resistance against metronidazole) is reported as “able to inhibit in vitro growth”. The zone of inhibition at 50 µg/mL is, setting by setting: (Helicobacter pylori, 72 h, H. pylori strain 88-A-13, concentration 50 µg/ml, 7 mm means no activity) 30 mm; under setting [1], 60 mm; (Helicobacter pylori, 72 h, H. pylori strain B104, concentration 50 µg/ml, 7 mm means no activity) 42 mm; under setting [2], 22 mm; under setting [3], 48 mm; under setting [4], 51 mm. The zone of inhibition at 50 µg/mL came to 77 mm (Helicobacter pylori, 72 h, H. pylori strain D29, concentration 50 µg/ml, 7 mm means no activity) and 41 mm under setting [5]. For the setting “Helicobacter pylori, NCTC11637, 72 h, H. pylori strain NCTC 11637, concentration 1.7 µg/ml, 7 mm means no activity”, the zone of inhibition at 1.7 µg/mL worked out at 19 mm.

As for `Cc1ncc([N+](=O)[O-])n1CCOC(=O)OCOC(=O)[C@@H]1N2C(=O)[C@@H](NC(=O)COc3ccccc3)[C@H]2SC1(C)C` [GBR 24158, [2-(2-Methyl-5-nitroimidazol-1-yl)ethoxy]carbonyloxymethyl (3S,5R,6R)-2,2-dimethyl-6-phenoxyacetamidopenam-3-carboxylate], the zone of inhibition at 20 µg/mL was found to be 19 mm under setting [6]; 27 mm under setting [7]; 29 mm under setting [8]; 47 mm under setting [9]; 34 mm under setting [10]; 20 mm under setting [11]. Further, the zone of inhibition at 20 µg/mL under setting [12] stood at 15 mm.

As for `Cc1ncc([N+](=O)[O-])n1CCOC(=O)COC(=O)[C@@H]1N2C(=O)[C@@H](NC(=O)COc3ccccc3)[C@H]2SC1(C)C` [GBR 24157, [2-(2-Methyl-5-nitroimidazol-1-yl)ethoxy] carbonylmethyl (3S,5R,6R)-2,2-dimethyl-6-phenoxyacetamidopenam-3-carboxylate], the zone of inhibition at 20 µg/mL by setting is: under setting [6], 10 mm; under setting [7], 11 mm; under setting [8], 14 mm; under setting [9], 28 mm; under setting [10], 24 mm; under setting [11], 13 mm. For the same compound, the zone of inhibition at 20 µg/mL under setting [12] turned out to be 7 mm.

Consider `Cc1ncc([N+](=O)[O-])n1CCOC(=O)COC(=O)[C@@H]1N2C(=O)[C@@H](NC(=O)[C@H](N)c3ccc(O)cc3)[C@H]2SC1(C)C` [GBR 24208, [2-(2-Methyl-5-nitroimidazol-1-yl)ethoxy]carbonylmethyl(3S,5R,6R)-6-[(R)-2-amino-2-(4-hydroxyphenyl)acetamido]-2,2-dimethylpenam-3-carboxylate], for which the zone of inhibition at 268 µg/mL reads like this: (Helicobacter pylori, 72 h, H. pylori strain A85, concentration 268 µg/ml, 7 mm means no activity) 10 mm; (Helicobacter pylori, 72 h, H. pylori strain D9, concentration 268 µg/ml (20 µl on 7 mm disc), 7 mm means no activity) 15 mm; (Helicobacter pylori, NCTC11637, 72 h, H. pylori strain NCTC 11637 (metronidazole resistant), concentration 268 µg/ml, 7 mm means no activity) 10 mm.
